Experimental data as given in PubChem BioAssay (NCI).
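Cells were grown in 96-well plates and exposed to each compound for 48 hours at five concentrations; endpoints were interpolated linearly between bracketing concentrations, or set to the highest concentration if not reached. GI50: concentration for 50% inhibition of growth. TGI is the concentration that stops growth completely.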

Assays:
Assay in all cases: DTP human tumour cell line panel, 48 h
786-0 renal = tested on: 786-0 renal
A498 renal = tested on: A498 renal
A549 NSCLC = tested on: A549 NSCLC
ACHN renal = tested on: ACHN renal
BT-549 breast = tested on: BT-549 breast
CAKI-1 renal = tested on: CAKI-1 renal
CCRF-CEM leukemia = tested on: CCRF-CEM leukemia
COLO 205 colon = tested on: COLO 205 colon
DU-145 prostate = tested on: DU-145 prostate
EKVX NSCLC = tested on: EKVX NSCLC
HCC-2998 colon = tested on: HCC-2998 colon
HCT-116 colon = tested on: HCT-116 colon
HCT-15 colon = tested on: HCT-15 colon
HL-60(TB) leukemia = tested on: HL-60(TB) leukemia
HOP-62 NSCLC = tested on: HOP-62 NSCLC
HOP-92 NSCLC = tested on: HOP-92 NSCLC
HS 578T breast = tested on: HS 578T breast
HT29 colon = tested on: HT29 colon
IGROV1 ovarian = tested on: IGROV1 ovarian
K-562 leukemia = tested on: K-562 leukemia
KM12 colon = tested on: KM12 colon
LOX IMVI melanoma = tested on: LOX IMVI melanoma
M14 melanoma = tested on: M14 melanoma
MALME-3M melanoma = tested on: MALME-3M melanoma
MCF7 breast = tested on: MCF7 breast
MDA-MB-231 breast = tested on: MDA-MB-231 breast
MDA-MB-435 = tested on: MDA-MB-435
MOLT-4 leukemia = tested on: MOLT-4 leukemia
NCI-H226 lung = tested on: NCI-H226 lung
NCI-H23 lung = tested on: NCI-H23 lung
NCI-H460 lung = tested on: NCI-H460 lung
NCI-H522 lung = tested on: NCI-H522 lung
NCI/ADR-RES ovarian = tested on: NCI/ADR-RES ovarian
OVCAR-3 ovarian = tested on: OVCAR-3 ovarian
OVCAR-4 ovarian = tested on: OVCAR-4 ovarian
OVCAR-5 ovarian = tested on: OVCAR-5 ovarian
OVCAR-8 ovarian = tested on: OVCAR-8 ovarian
PC-3 prostate = tested on: PC-3 prostate
RPMI-8226 leukemia = tested on: RPMI-8226 leukemia
RXF 393 renal = tested on: RXF 393 renal
SF-268 CNS = tested on: SF-268 CNS
SF-295 CNS = tested on: SF-295 CNS
SF-539 CNS = tested on: SF-539 CNS
SK-MEL-2 melanoma = tested on: SK-MEL-2 melanoma
SK-MEL-28 melanoma = tested on: SK-MEL-28 melanoma
SK-MEL-5 melanoma = tested on: SK-MEL-5 melanoma
SK-OV-3 ovarian = tested on: SK-OV-3 ovarian
SN12C renal = tested on: SN12C renal
SNB-19 CNS = tested on: SNB-19 CNS
SR leukemia = tested on: SR leukemia
SW-620 colon = tested on: SW-620 colon
T-47D breast = tested on: T-47D breast
TK-10 renal = tested on: TK-10 renal
U251 CNS = tested on: U251 CNS
UACC-257 melanoma = tested on: UACC-257 melanoma
UACC-62 melanoma = tested on: UACC-62 melanoma
UO-31 renal = tested on: UO-31 renal

With `COc1ccc2cc(-c3cnc4nonc4n3)ccc2c1` the GI50 (786-0 renal) was 4.17 µM, the TGI (786-0 renal) was > 100 µM and the GI50 (A498 renal) was 1.15 µM. The TGI (A498 renal) was 8.79 µM, the GI50 (A549 NSCLC) was 3.33 µM and the TGI (A549 NSCLC) was > 100 µM. The GI50 (ACHN renal) was 4.33 µM, the TGI (ACHN renal) was > 100 µM and the GI50 (BT-549 breast) was 4.39 µM. The TGI (BT-549 breast) was > 100 µM, the GI50 (CAKI-1 renal) was 2.83 µM and the TGI (CAKI-1 renal) was > 100 µM. For the same compound, the GI50 (CCRF-CEM leukemia) was 1.62 µM, the TGI (CCRF-CEM leukemia) was > 100 µM and the GI50 (COLO 205 colon) was 3.12 µM. The TGI (COLO 205 colon) was > 100 µM, the GI50 (DU-145 prostate) was 24.4 µM and the TGI (DU-145 prostate) was > 100 µM. The GI50 (EKVX NSCLC) was 0.83 µM, the TGI (EKVX NSCLC) was > 100 µM and the GI50 (HCC-2998 colon) was 2.32 µM. The TGI (HCC-2998 colon) was > 100 µM, the GI50 (HCT-116 colon) was 2.12 µM and the TGI (HCT-116 colon) was > 100 µM. The GI50 (HCT-15 colon) was 0.684 µM, the TGI (HCT-15 colon) was > 100 µM and the GI50 (HL-60(TB) leukemia) was 0.803 µM. It also gave a TGI (HL-60(TB) leukemia) of 9.03 µM, a GI50 (HOP-62 NSCLC) of 5.22 µM and a TGI (HOP-62 NSCLC) of 64 µM. For the same compound, the GI50 (HOP-92 NSCLC) was 16.1 µM, the TGI (HOP-92 NSCLC) was > 100 µM and the GI50 (HS 578T breast) was 1.23 µM. For the same compound, the TGI (HS 578T breast) was > 100 µM, the GI50 (HT29 colon) was 2.97 µM and the TGI (HT29 colon) was > 100 µM. For the same compound, the GI50 (IGROV1 ovarian) was 15.3 µM, the TGI (IGROV1 ovarian) was > 100 µM and the GI50 (K-562 leukemia) was 0.468 µM. For the same compound, the TGI (K-562 leukemia) was > 100 µM, the GI50 (KM12 colon) was 2.03 µM and the TGI (KM12 colon) was > 100 µM. For the same compound, the GI50 (LOX IMVI melanoma) was 1.88 µM, the TGI (LOX IMVI melanoma) was > 100 µM and the GI50 (M14 melanoma) was 1.91 µM. The TGI (M14 melanoma) was 6.38 µM, the GI50 (MALME-3M melanoma) was 4.03 µM and the TGI (MALME-3M melanoma) was > 100 µM. For the same compound, the GI50 (MCF7 breast) was 0.415 µM, the TGI (MCF7 breast) was > 100 µM and the GI50 (MDA-MB-231 breast) was 14.1 µM. For the same compound, the TGI (MDA-MB-231 breast) was > 100 µM, the GI50 (MDA-MB-435) was 1 µM and the TGI (MDA-MB-435) was 3.35 µM. For the same compound, the GI50 (MOLT-4 leukemia) was 1.92 µM, the TGI (MOLT-4 leukemia) was > 100 µM and the GI50 (NCI-H226 lung) was 6.43 µM. For the same compound, the TGI (NCI-H226 lung) was > 100 µM, the GI50 (NCI-H23 lung) was 4.49 µM and the TGI (NCI-H23 lung) was > 100 µM. The GI50 (NCI-H460 lung) was 11 µM, the TGI (NCI-H460 lung) was > 100 µM and the GI50 (NCI-H522 lung) was 1.29 µM. For the same compound, the TGI (NCI-H522 lung) was > 100 µM, the GI50 (NCI/ADR-RES ovarian) was 1.32 µM and the TGI (NCI/ADR-RES ovarian) was > 100 µM. For the same compound, the GI50 (OVCAR-3 ovarian) was 0.982 µM, the TGI (OVCAR-3 ovarian) was 56.9 µM and the GI50 (OVCAR-4 ovarian) was 5.99 µM. The TGI (OVCAR-4 ovarian) was > 100 µM, the GI50 (OVCAR-5 ovarian) was 6 µM and the TGI (OVCAR-5 ovarian) was > 100 µM. The GI50 (OVCAR-8 ovarian) was 2.54 µM, the TGI (OVCAR-8 ovarian) was > 100 µM and the GI50 (PC-3 prostate) was 2.11 µM. For the same compound, the TGI (PC-3 prostate) was > 100 µM, the GI50 (RPMI-8226 leukemia) was 0.685 µM and the TGI (RPMI-8226 leukemia) was 17.5 µM. For the same compound, the GI50 (RXF 393 renal) was 1.26 µM, the TGI (RXF 393 renal) was 7.31 µM and the GI50 (SF-268 CNS) was 8.59 µM. The TGI (SF-268 CNS) was > 100 µM, the GI50 (SF-295 CNS) was 2.08 µM and the TGI (SF-295 CNS) was > 100 µM. The GI50 (SF-539 CNS) was 0.825 µM, the TGI (SF-539 CNS) was 4.88 µM and the GI50 (SK-MEL-2 melanoma) was 3.66 µM. The TGI (SK-MEL-2 melanoma) was > 100 µM, the GI50 (SK-MEL-28 melanoma) was > 100 µM and the TGI (SK-MEL-28 melanoma) was > 100 µM. For the same compound, the GI50 (SK-MEL-5 melanoma) was 1.24 µM, the TGI (SK-MEL-5 melanoma) was 8.5 µM and the GI50 (SK-OV-3 ovarian) was 10.8 µM. For the same compound, the TGI (SK-OV-3 ovarian) was > 100 µM, the GI50 (SN12C renal) was 5.28 µM and the TGI (SN12C renal) was > 100 µM. The GI50 (SNB-19 CNS) was 4.37 µM, the TGI (SNB-19 CNS) was > 100 µM and the GI50 (SR leukemia) was 0.423 µM. The TGI (SR leukemia) was > 100 µM, the GI50 (SW-620 colon) was 1.25 µM and the TGI (SW-620 colon) was > 100 µM. For the same compound, the GI50 (T-47D breast) was 1.99 µM, the TGI (T-47D breast) was > 100 µM and the GI50 (TK-10 renal) was 10.6 µM. For the same compound, the TGI (TK-10 renal) was > 100 µM, the GI50 (U251 CNS) was 3.21 µM and the TGI (U251 CNS) was 37.3 µM. The GI50 (UACC-257 melanoma) was 7.89 µM, the TGI (UACC-257 melanoma) was > 100 µM and the GI50 (UACC-62 melanoma) was 2.32 µM. For the same compound, the TGI (UACC-62 melanoma) was > 100 µM, the GI50 (UO-31 renal) was 3.23 µM and the TGI (UO-31 renal) was > 100 µM.
